Drawing on paper PMC3917155 (Journal of medicinal chemistry, 2013), this text covers IC50 for two molecules.

The subject of the experiment is R2(VC). Briefly: cells. Also noted: species or system CHO sublines. The following applies: 96 h, read-out: >1000.

`Nc1nc2[nH]cc(CCCc3ccc(C(=O)N[C@@H](CCC(=O)O)C(=O)O)cc3)c2c(=O)[nH]1` [compound 7]: the IC50 was above 1000 nM. For `Nc1nc2[nH]cc(CCCCc3ccc(C(=O)N[C@@H](CCC(=O)O)C(=O)O)cc3)c2c(=O)[nH]1` [compound 8], the IC50 was above 1000 nM.
